As usually defined, the Ki is a measure of affinity in units of concentration, obtained from inhibition or displacement. In general, Km refers to the concentration of substrate that gives half-maximal velocity.

This passage reports Ki and Km results from article PMC11098088, “A distinct, high-affinity, alkaline phosphatase facilitates occupation of P-depleted environments by marine picocyanobacteria” (Proceedings of the National Academy of Sciences of the …, 2024).

One series has as its target T1, Psip1 (Prochlorococcus marinus, UniProt Q7V066).
T1 construct: gene PMM1416; predicted signal peptide removed; codon-optimized; pET-23a(+), C-terminal His-tag; E. coli BL21(DE3); reconstituted with Fe and Ca
T1 sequence (Q7V066 24-694): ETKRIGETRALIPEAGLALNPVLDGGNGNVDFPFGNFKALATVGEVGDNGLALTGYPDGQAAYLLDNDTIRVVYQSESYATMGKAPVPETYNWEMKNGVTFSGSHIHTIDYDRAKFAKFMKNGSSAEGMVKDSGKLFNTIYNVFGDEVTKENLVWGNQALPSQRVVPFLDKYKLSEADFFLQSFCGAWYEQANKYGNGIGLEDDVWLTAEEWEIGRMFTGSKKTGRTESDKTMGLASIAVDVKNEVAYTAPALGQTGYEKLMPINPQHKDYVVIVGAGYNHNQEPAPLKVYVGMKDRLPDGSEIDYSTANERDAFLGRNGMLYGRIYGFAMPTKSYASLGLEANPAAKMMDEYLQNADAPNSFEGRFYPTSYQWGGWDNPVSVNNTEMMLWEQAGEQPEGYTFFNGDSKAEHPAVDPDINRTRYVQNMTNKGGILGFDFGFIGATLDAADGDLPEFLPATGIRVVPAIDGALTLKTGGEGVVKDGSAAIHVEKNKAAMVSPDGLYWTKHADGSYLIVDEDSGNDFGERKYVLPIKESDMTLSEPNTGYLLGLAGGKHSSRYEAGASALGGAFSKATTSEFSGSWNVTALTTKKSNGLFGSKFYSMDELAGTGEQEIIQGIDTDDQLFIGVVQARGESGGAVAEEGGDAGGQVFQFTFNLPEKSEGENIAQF
Nature of the series: inhibition of MUF release from MUF-P. Type of series: biochemical. To be noted: competing with MUF-P; estimated Ki; Fe(III) and Ca2+; Pi release by phosphomolybdate assay. The text has this: inhibition of MUF release from […] on Psip1 | natural organic P compounds: glycerol-1-phosphate (G1P) | glycerol-3-phosphate (G3P) | phosphocholine (PC) | phosphorylethanolamine (PE) | adenosine monophosphate (AMP) | glucosamine-6-phosphate (Ga6P) by measuring the inhibition of MUF release from […]

Substrate in series [1]: Cc1cc(=O)oc2cc(OP(=O)(O)Oc3ccc4c(C)cc(=O)oc4c3)ccc12
The series is described as follows: purified protein. The note with it: pH 8.8, Fe(III) and Ca2+, 30 °C, phosphodiesterase activity.

Substrate in series [2]: O=[N+]([O-])c1ccc(OP(=O)(O)O)cc1
The series is described as follows: purified protein. The format is biochemical, Prochlorococcus marinus. The note with it: pH 9.8, Fe(III) and Ca2+, 30 °C.

With `Nc1ncnc2c1ncn2[C@@H]1O[C@H](COP(=O)(O)O)[C@@H](O)[C@H]1O` [adenosine monophosphate], the Ki on Psip1 is 1520 ± 220 nM.

Regarding `N[C@H]1C(O)O[C@H](COP(=O)(O)O)[C@@H](O)[C@@H]1O` (some centres unmarked) [glucosamine-6-phosphate], the Ki at Psip1 is 600 ± 110 nM.

`O=P(O)(O)OCC(O)CO` (centres unmarked) [glycerol-1-phosphate]: on Psip1, the Ki is 1200 ± 200 nM.

For `O=P(O)(O)OC[C@H](O)CO` [glycerol-3-phosphate], the Ki on Psip1 was 790 ± 150 nM.

Take `C[N+](C)(C)CCOP(=O)([O-])O` [phosphocholine]: at Psip1, the Ki was 2200 ± 370 nM.

Turning to `NCCOP(=O)(O)O` [phosphorylethanolamine], the Ki at Psip1 was 4460 ± 1080 nM.

B1: Psip1 (Prochlorococcus marinus subsp. pastoris str. CCMP1986) (protein)
chain: ETKRIGETRALIPEAGLALNPVLDGGNGNVDFPFGNFKALATVGEVGDNGLALTGYPDGQAAYLLDNDTIRVVYQSESYATMGKAPVPETYNWEMKNGVTFSGSHIHTIDYDRAKFAKFMKNGSSAEGMVKDSGKLFNTIYNVFGDEVTKENLVWGNQALPSQRVVPFLDKYKLSEADFFLQSFCGAWYEQANKYGNGIGLEDDVWLTAEEWEIGRMFTGSKKTGRTESDKTMGLASIAVDVKNEVAYTAPALGQTGYEKLMPINPQHKDYVVIVGAGYNHNQEPAPLKVYVGMKDRLPDGSEIDYSTANERDAFLGRNGMLYGRIYGFAMPTKSYASLGLEANPAAKMMDEYLQNADAPNSFEGRFYPTSYQWGGWDNPVSVNNTEMMLWEQAGEQPEGYTFFNGDSKAEHPAVDPDINRTRYVQNMTNKGGILGFDFGFIGATLDAADGDLPEFLPATGIRVVPAIDGALTLKTGGEGVVKDGSAAIHVEKNKAAMVSPDGLYWTKHADGSYLIVDEDSGNDFGERKYVLPIKESDMTLSEPNTGYLLGLAGGKHSSRYEAGASALGGAFSKATTSEFSGSWNVTALTTKKSNGLFGSKFYSMDELAGTGEQEIIQGIDTDDQLFIGVVQARGESGGAVAEEGGDAGGQVFQFTFNLPEKSEGENIAQF
notes: predicted signal peptide removed; codon-optimized; pET-23a(+), C-terminal His-tag; E. coli BL21(DE3); reconstituted with Fe and Ca
As to B1, the figures for the Michaelis-Menten constant (Km) in “purified protein [1]” and in the series “purified protein [2]” were 46.1 ± 5.72 µM and 2.5 ± 1.18 µM, respectively.
